This assay has as its system P388 leukemia ip, CD2F1 mice, survival T/C. The experiment in a line: NCI In Vivo Anticancer Drug Screen. Data for tumor model P388 Leukemia (intraperitoneal) in CD2F1 (CDF1) mice. As to conditions: endpoint: median survival time, higher = longer survival. Put shortly:
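Mice carrying the transplanted tumor received test compound or vehicle. Survival was recorded in each group, and the value is the treated-group measurement divided by that of the vehicle-treated control group.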

[1] abbreviates: dose: 50.0 mg/kg/injection, schedule: Q01DX005 (ip), vehicle: Klucel (hydroxypropylcellulose) (HPC).
[2] abbreviates: dose: 100.0 mg/kg/injection, schedule: Q01DX005 (ip), vehicle: Klucel (hydroxypropylcellulose) (HPC).
Setting [3] is: dose: 200.0 mg/kg/injection, schedule: Q01DX005 (ip), vehicle: Klucel (hydroxypropylcellulose) (HPC).
Where [4] appears, read: dose: 60.0 mg/kg/injection, schedule: Q01DX005 (ip), vehicle: saline.
[5] abbreviates: dose: 120.0 mg/kg/injection, schedule: Q01DX005 (ip), vehicle: saline.
Setting [6] is: dose: 100.0 mg/kg/injection, schedule: Q01DX009 (ip), vehicle: saline with Tween-80.
The mark [7] stands for this setting: dose: 200.0 mg/kg/injection, schedule: Q01DX009 (ip), vehicle: saline with Tween-80.
[8] abbreviates: dose: 400.0 mg/kg/injection, schedule: Q01DX009 (ip), vehicle: saline with Tween-80.
[9] abbreviates: dose: 25.0 mg/kg/injection, schedule: Q01DX009 (ip), vehicle: saline.
Setting [10] is: dose: 50.0 mg/kg/injection, schedule: Q01DX009 (ip), vehicle: saline.
The mark [11] stands for this setting: dose: 50.0 mg/kg/injection, schedule: Q01DX005 (ip), vehicle: saline with Tween-80.
Where [12] appears, read: dose: 100.0 mg/kg/injection, schedule: Q01DX005 (ip), vehicle: saline with Tween-80.
The mark [13] stands for this setting: dose: 100.0 mg/kg/injection, schedule: Q04DX003 (ip), vehicle: saline with Tween-80.
Setting [14] is: dose: 200.0 mg/kg/injection, schedule: Q04DX003 (ip), vehicle: saline with Tween-80.
Where [15] appears, read: dose: 400.0 mg/kg/injection, schedule: Q04DX003 (ip), vehicle: saline with Tween-80.
Setting [16] is: dose: 100.0 mg/kg/injection, schedule: Q01DX009 (ip), vehicle: saline.
Where [17] appears, read: dose: 60.0 mg/kg/injection, schedule: Q01DX005 (ip), vehicle: saline with Tween-80.
The mark [18] stands for this setting: dose: 120.0 mg/kg/injection, schedule: Q01DX005 (ip), vehicle: saline with Tween-80.
Setting [19] is: dose: 240.0 mg/kg/injection, schedule: Q01DX005 (ip), vehicle: saline with Tween-80.
Setting [20] is: dose: 200.0 mg/kg/injection, schedule: Q01DX005 (ip), vehicle: saline with Tween-80.

“And” between values parts separate entries of the source, which are not always exact repeats. Identical values can stand only once. Inconclusive results and toxic doses are left out.

For `Nc1ccc(O)c2c1C(=O)c1c(O)ccc(N)c1C2=O`, the T/C reads like this: under setting [1], 100 % of control; under setting [2], 105 % of control; under setting [3], 87 % of control.
In the case of `CCn1c2ccccc2c2cc(/C=N/Nc3cc(C)nc4cc5c(cc34)OCO5)ccc21`, the T/C is 100 % of control under setting [1] and 89 % of control under setting [2].
Regarding `NC(=O)c1cc([N+](=O)[O-])cnc1Sc1ncn[nH]1`, the T/C is, setting by setting: (dose: 50.0 mg/kg/injection, schedule: Q01DX009 (ip), vehicle: Klucel (hydroxypropylcellulose) (HPC)) 98 % of control; (dose: 100.0 mg/kg/injection, schedule: Q01DX009 (ip), vehicle: Klucel (hydroxypropylcellulose) (HPC)) 107 % of control.
On to `CCCCCCCCOc1cc2cc(O)oc3cc(=O)cc(o1)c23`, for which the T/C is, setting by setting: under setting [4], 108 % of control; under setting [5], 122 % of control.
`CCn1c(C)c(COC(=O)NC)c(COC(=O)NC)c1-c1ccc(Cl)c(Cl)c1`: the T/C is 150 % of control and 152 % of control (dose: 6.25 mg/kg/injection, schedule: Q01DX009 (ip), vehicle: distilled water + Tween-80); 153 % of control (dose: 12.5 mg/kg/injection, schedule: Q01DX009 (ip), vehicle: distilled water + Tween-80).
For the compound `CC(=O)Nc1cccc2c1C(=O)OC2=O`, the T/C was 100 % of control (dose: 50.0 mg/kg/injection, schedule: Q01DX009 (ip), vehicle: saline with Tween-80); 109 % of control under setting [6]; 108 % of control under setting [7]; 102 % of control under setting [8].
As to `CCOC(=O)Nc1ccc(S(=O)(=O)c2ccc(Nc3ccnc4cc(Cl)ccc34)cc2)cc1`, the T/C by setting is: under setting [1], 94 % of control; under setting [2], 98 % of control; under setting [3], 91 % of control.
`O=S(=O)(O)SCCN1CCCCC1`: the T/C is, setting by setting: (dose: 12.5 mg/kg/injection, schedule: Q01DX009 (ip), vehicle: saline) 110 % of control; under setting [9], 100 % of control; under setting [10], 100 % of control.
As for `CC(C)C(C(=O)CCN(C)C)c1ccc(Cl)cc1` (centres undefined), the T/C is 116 % of control under setting [11] and 100 % of control under setting [12].
Consider `COc1ccc(CCN2C(=O)CSC2=S)cc1OC`, for which the T/C is, setting by setting: under setting [6], 100 % of control; under setting [13], 90 % of control; under setting [7], 90 % of control; under setting [14], 90 % of control; under setting [15], 90 % of control.
Take `Cc1ccc(SCc2cn(C3OC(CO)C(O)C3O)c(=O)[nH]c2=O)cc1` (centres undefined): the T/C was 95 % of control and 102 % of control (dose: 60.0 mg/kg/injection, schedule: Q01DX005 (ip), vehicle: Klucel (hydroxypropylcellulose) (HPC)); 95 % of control and 101 % of control (dose: 120.0 mg/kg/injection, schedule: Q01DX005 (ip), vehicle: Klucel (hydroxypropylcellulose) (HPC)); 92 % of control and 95 % of control (dose: 240.0 mg/kg/injection, schedule: Q01DX005 (ip), vehicle: Klucel (hydroxypropylcellulose) (HPC)).
In the case of `O=[N+]([O-])c1ccc(/C=N\Nc2ccc([N+](=O)[O-])cn2)cc1`, the T/C was 100 % of control under setting [16]; 90 % of control under setting [13]; 115 % of control (dose: 200.0 mg/kg/injection, schedule: Q01DX009 (ip), vehicle: saline); 104 % of control under setting [14]; 105 % of control (dose: 400.0 mg/kg/injection, schedule: Q01DX009 (ip), vehicle: saline); 109 % of control under setting [15].
Consider `CC(C)(C)c1ccc(C(c2ccc(C(C)(C)C)cc2)C(Cl)(Cl)Cl)cc1`, for which the T/C under setting [13] was 104 % of control, the T/C under setting [14] was 100 % of control and the T/C under setting [15] is 100 % of control.
For the compound `CC1=CC(=C2C=CC(=[N+](C)C)C=C2)C=C(C)S1`, the T/C is, setting by setting: (dose: 3.12 mg/kg/injection, schedule: Q01DX009 (ip), vehicle: distilled water + Tween-80 + alcohol) 109 % of control; (dose: 6.25 mg/kg/injection, schedule: Q01DX009 (ip), vehicle: distilled water + Tween-80 + alcohol) 119 % of control; (dose: 12.5 mg/kg/injection, schedule: Q01DX009 (ip), vehicle: distilled water + Tween-80 + alcohol) 120 % of control.
For the compound `CCCS(=O)(=O)Nc1ccc(Nc2c3ccccc3nc3ccccc23)c(OC)c1`, the T/C reads like this: (dose: 6.25 mg/kg/injection, schedule: Q01DX009 (ip), vehicle: saline) 118 % of control; under setting [9], 150 % of control and 160 % of control; under setting [10], 150 % of control.
In the case of `CCc1c(-c2ccccc2)nc(N(C)C)oc1=O`, the T/C runs as follows: under setting [17], 106 % of control; under setting [18], 100 % of control; under setting [19], 98 % of control.
As to `NCCNCCNCCNCCN` (tested in a mixture with another compound), the T/C under setting [9] is 118 % of control, the T/C under setting [10] is 118 % of control and the T/C under setting [16] is 100 % of control.
Regarding `O=C(CCCCCCCCCCC(=O)NO)NO`, the T/C runs as follows: under setting [17], 105 % of control; under setting [18], 106 % of control; under setting [19], 110 % of control.
On to `CC1=CC2(C)C=C(C)C3(OC(c4ccccc4)=C(C#N)C3=N2)C1=O` (centres undefined), for which the T/C is, setting by setting: under setting [11], 103 % of control; under setting [12], 105 % of control; under setting [20], 111 % of control.
For `CSc1nc(N)c2cnn(C3OC(CO)C(O)C3O)c2n1` (centres undefined), in that order: 100 % of control, 109 % of control and 100 % of control.
`CCOC(=O)N1C(C)CCCC1C` (centres undefined): the T/C is 106 % of control under setting [4]; 105 % of control under setting [5]; 95 % of control (dose: 240.0 mg/kg/injection, schedule: Q01DX005 (ip), vehicle: saline).
On to `CCCCCCCCCCCCCCCCCCCCCC(O)(CC)CC`, for which the T/C runs as follows: under setting [6], 100 % of control; under setting [13], 100 % of control; under setting [7], 109 % of control; under setting [14], 100 % of control; under setting [8], 100 % of control; under setting [15], 110 % of control.
Take `Cc1nc2ccccc2[se]1`: the T/C is 100 % of control under setting [17], 92 % of control under setting [18] and 96 % of control under setting [19].
With `C1CCN2CSCCCC2C1` (centres undefined), the T/C is 100 % of control (dose: 50.0 mg/kg/injection, schedule: Q01DX005 (ip), vehicle: saline); 104 % of control (dose: 100.0 mg/kg/injection, schedule: Q01DX005 (ip), vehicle: saline); 111 % of control (dose: 200.0 mg/kg/injection, schedule: Q01DX005 (ip), vehicle: saline).
Regarding `C1=C(c2ccccc2)[P+](c2ccccc2)(c2ccccc2)C=C(c2ccccc2)[P+]1(c1ccccc1)c1ccccc1`, the T/C was 109 % of control (dose: 16.5 mg/kg/injection, schedule: Q04DX003 (ip), vehicle: saline); 109 % of control (dose: 25.0 mg/kg/injection, schedule: Q04DX003 (ip), vehicle: saline); 109 % of control (dose: 37.5 mg/kg/injection, schedule: Q04DX003 (ip), vehicle: saline).
Regarding `C=CN1CCCC1=O`, the T/C is, setting by setting: (dose: 100.0 mg/kg/injection, schedule: Q04DX003 (ip), vehicle: saline) 104 % of control; (dose: 200.0 mg/kg/injection, schedule: Q04DX003 (ip), vehicle: saline) 100 % of control; (dose: 0.25 % in 0.5 ml injection vol, schedule: Q01DX009 (ip), vehicle: water) 100 % of control; (dose: 400.0 mg/kg/injection, schedule: Q04DX003 (ip), vehicle: saline) 100 % of control; (dose: 0.5 % in 0.5 ml injection vol, schedule: Q01DX009 (ip), vehicle: water) 107 % of control; (dose: 1.0 % in 0.5 ml injection vol, schedule: Q01DX009 (ip), vehicle: water) 100 % of control and 102 % of control. Further, the T/C was 100 % of control and 98 % of control (dose: 2.0 % in 0.5 ml injection vol, schedule: Q01DX009 (ip), vehicle: water); 102 % of control and 104 % of control and 108 % of control (dose: 4.0 % in 0.5 ml injection vol, schedule: Q01DX009 (ip), vehicle: water); 102 % of control and 109 % of control and 92 % of control (dose: 8.0 % in 0.5 ml injection vol, schedule: Q01DX009 (ip), vehicle: water); 100 % of control and 103 % of control and 95 % of control (dose: 16.0 % in 0.5 ml injection vol, schedule: Q01DX009 (ip), vehicle: water).

The values are drawn from PubChem BioAssay AID330 (DTP/NCI, 2004).
